Reference: article PMC12892976, “Alkylation-based optimization of antifungal FPPS inhibitors yields a potent, broad-spectrum lipophilic zoledronate derivative” (mBio, 2025)
Where two headings read alike, the source gives them in different places.

What was measured:
Saccharomyces cerevisiae [1] = assay: MIC/MFC broth microdilution (CLSI); assay type: cell-based; settings: Saccharomyces cerevisiae S288c
Protocol: (§1) Antifungal susceptibility was determined by broth microdilution according to the CLSI guidelines described in M27-Ed4 ([16]). […] MFC was determined by back-plating drug-treated cultures from MIC broths onto SDA plates. The MFC was defined as the lowest concentration from which no colonies could be cultured.

Candida albicans [2] = assay: MIC/MFC broth microdilution (CLSI); assay type: cell-based; settings: Candida albicans SC5314
Protocol: as §1

Aspergillus udagawae = assay: MIC broth microdilution (CLSI); assay type: cell-based; settings: Aspergillus udagawae 8G81
Protocol: (§2) Antifungal susceptibility was determined by broth microdilution according to the CLSI guidelines described in M27-Ed4 ([16]).

Aspergillus parafelis = assay: MIC broth microdilution (CLSI); assay type: cell-based; settings: Aspergillus parafelis DTO 341-F2
Protocol: as §2

[3] = test system: Cryptococcus deuterogattii; assay: checkerboard drug interaction (FICI, MICc);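 on all read-outs here: simplified diagonal checkerboard screen pairing antifungal drugs with FPPS inhibitors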; assay type: cell-based; settings: for INH MICc: C. deuterogattii
Protocol: (§3) Drug interactions between antifungals and FPPS inhibitors were investigated using a simplified checkerboard diagonal screening method ([45]). […] FICIs were determined according to the Loewe additivity model ([17]).

Cryptococcus neoformans [4] = assay: checkerboard drug interaction (FICI, MICc);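 on all read-outs here: antifungal plus FPPS inhibitor pairs tested against Cryptococcus neoformans by simplified diagonal checkerboard screening, FICI computed under the Loewe additivity model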; assay type: cell-based; settings: for INH MICc: C. neoformans
Protocol: as §3

Saccharomyces cerevisiae [5] = assay: checkerboard drug interaction (FICI, MICc); assay type: cell-based; parameters: INH MICc / INH MICc (ITR:INH) / INH MICc (KET:INH) / INH MICc (FLC:INH): unit not given beside the values;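 further: simplified diagonal checkerboard screen pairing antifungals with FPPS inhibitors, FICI calculated under the Loewe additivity model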
Candida glabrata [6] = assay: checkerboard drug interaction (FICI, MICc);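 on all read-outs here: simplified diagonal checkerboard screen pairing antifungals with FPPS inhibitors, FICI calculated under the Loewe additivity model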; assay type: cell-based; settings: for INH MICc: C. glabrata
Protocol: as §3

Candida albicans [7] = assay: checkerboard drug interaction (FICI, MICc);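 on all read-outs here: antifungal plus FPPS inhibitor combinations on Candida albicans tested by a simplified diagonal checkerboard screen, with FICI calculated under the Loewe additivity model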; assay type: cell-based; settings: for INH MICc: C. albicans
Protocol: as §3

Aspergillus flavus [8] = assay: checkerboard drug interaction (FICI, MICc); assay type: cell-based; parameters: INH MICc (KET:INH) / INH MICc (FLC:INH): unit not given beside the values;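 further: simplified diagonal checkerboard screen pairing azole antifungals with FPPS inhibitors, FICI calculated under the Loewe additivity model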
Aspergillus fumigatus [9] = assay: checkerboard drug interaction (FICI, MICc); assay type: cell-based;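 further: simplified diagonal checkerboard screen pairing antifungals with FPPS inhibitors against Aspergillus fumigatus, with FICI calculated under the Loewe additivity model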
Protocol: as §3

Trichophyton rubrum [10] = assay: checkerboard drug interaction (FICI, MICc); assay type: cell-based;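 further: simplified diagonal checkerboard screen pairing azole antifungals with FPPS inhibitors, FICI calculated under the Loewe additivity model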
Protocol: as §3

Trichophyton tonsurans = assay: checkerboard drug interaction (FICI, MICc); assay type: cell-based;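 further: simplified diagonal checkerboard screen combining antifungals with FPPS inhibitors, with FICI calculated under the Loewe additivity model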
Protocol: as §3

eight fungal species [11] = assay: MIC/MFC summary across the eight fungal species of Table 1; assay type: cell-based
Protocol: The antifungal activity of these compounds was evaluated according to CLSI guidelines ([16]).

eight fungal species [12] = assay: checkerboard interaction with azoles, summary across the eight species; assay type: cell-based
Source text: Synergy between lipophilic FPPS inhibitors and azole antifungals was investigated by determining the fractional inhibitory concentration index (FICI) (Fig. 2; Table S1 Fig. S1) ([17]). […]. Derivatives PLA9 and 11, and PDA9, 11, and 12 antagonized azoles in C. albicans, C. neoformans, and C. deuterogattii, yet were largely synergistic in C. glabrata and S. cerevisiae. […].

[13] = test system: Cryptococcus deuterogattii; assay: MIC/MFC broth microdilution (CLSI);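 further: broth microdilution per CLSI M27-Ed4. MFC is the lowest concentration yielding no colonies when MIC broths are subcultured onto SDA plates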
Protocol: as §1

Cryptococcus neoformans [14] = assay: MIC/MFC broth microdilution (CLSI);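 further: susceptibility testing followed the CLSI M27-Ed4 broth microdilution document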
Protocol: as §1

Candida glabrata [15] = assay: MIC/MFC broth microdilution (CLSI);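 further: broth microdilution following CLSI M27-Ed4, MFC taken as the lowest drug level yielding no growth once MIC wells were subcultured on SDA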
Protocol: as §1

Aspergillus flavus [16] = assay: MIC/MFC broth microdilution (CLSI); settings: ATCC204304
Protocol: as §1

Aspergillus fumigatus [17] = assay: MIC/MFC broth microdilution (CLSI); settings: ATCC204305
Protocol: as §1

Trichophyton rubrum [18] = assay: MIC/MFC broth microdilution (CLSI)
Protocol: as §1

[19] = FLC:INH combination, MIC of the inhibitor in combination with FLC
[20] = ITR:INH combination, MIC of the inhibitor in combination with ITR
[21] = KET:INH combination, MIC of the inhibitor in combination with KET

Compound: CCCCCCCCCCn1cc[n+](CC(O)(P(=O)(O)O)P(=O)(O)O)c1 [10-ZOL, Decyl-zoledronate]
- MFC (Saccharomyces cerevisiae [1]): 8 µg/mL
- MIC (Saccharomyces cerevisiae [1]): 1 µg/mL
- MIC / MEC (Saccharomyces cerevisiae [1]): 1 µg/mL
- MFC (Candida albicans [2]): 16 µg/mL
- MIC (Candida albicans [2]): 4 µg/mL
- MIC / MEC (Candida albicans [2]): 4 µg/mL
- MIC / MEC (Aspergillus udagawae): 1 µg/mL
- MIC / MEC (Aspergillus parafelis): 4 µg/mL
- INH MICc [3, 19]: 0.125
- INH MICc [3, 20]: 0.125
- INH MICc [3, 21]: 0.063
- bisphosphonate MICc ([3]; with 5FC): 1
- bisphosphonate MICc ([3]; with AMB): 0.063
- bisphosphonate MICc ([3]; with CAS): 1
- bisphosphonate MICc ([3]; with FLC): 0.125
- bisphosphonate MICc ([3]; with ITR): 0.125
- bisphosphonate MICc ([3]; with KET): 0.063
- bisphosphonate MICc ([3]; with VOR): 0.063
- INH MICc (Cryptococcus neoformans [4]; [19]): 0.125
- INH MICc (Cryptococcus neoformans [4]; [20]): 0.063
- INH MICc (Cryptococcus neoformans [4]; [21]): 0.063
- bisphosphonate MICc (Cryptococcus neoformans [4]; with 5FC): 0.5
- bisphosphonate MICc (Cryptococcus neoformans [4]; with AMB): 0.25
- bisphosphonate MICc (Cryptococcus neoformans [4]; with CAS): 0.5
- bisphosphonate MICc (Cryptococcus neoformans [4]; with FLC): 0.125
- bisphosphonate MICc (Cryptococcus neoformans [4]; with ITR): 0.063
- bisphosphonate MICc (Cryptococcus neoformans [4]; with KET): 0.063
- bisphosphonate MICc (Cryptococcus neoformans [4]; with VOR): 0.25
- FICI (Saccharomyces cerevisiae [5]; 5FC:10-ZOL): 2
- FICI (Saccharomyces cerevisiae [5]; ITR:10-ZOL): 1
- FLC MICc (Saccharomyces cerevisiae [5]; S. cerevisiae, FLC:INH combination, MIC of FLC in combination with the inhibitor): 1
- INH MICc (Saccharomyces cerevisiae [5]; S. cerevisiae, FLC:INH combination, MIC of the inhibitor in combination with FLC): 0.5
- FICI (Saccharomyces cerevisiae [5]; S. cerevisiae, ITR:INH combination): 1
- ITR MICc (Saccharomyces cerevisiae [5]; S. cerevisiae, ITR:INH combination, MIC of ITR in combination with the inhibitor): 0.125
- INH MICc (Saccharomyces cerevisiae [5]; S. cerevisiae, ITR:INH combination, MIC of the inhibitor in combination with ITR): 0.5
- KET MICc (Saccharomyces cerevisiae [5]; S. cerevisiae, KET:INH combination, MIC of KET in combination with the inhibitor): 0.25
- INH MICc (Saccharomyces cerevisiae [5]; S. cerevisiae, KET:INH combination, MIC of the inhibitor in combination with KET): 0.25
- bisphosphonate MICc (Saccharomyces cerevisiae [5]; with 5FC): 1
- bisphosphonate MICc (Saccharomyces cerevisiae [5]; with AMB): 0.25
- bisphosphonate MICc (Saccharomyces cerevisiae [5]; with CAS): 0.063
- bisphosphonate MICc (Saccharomyces cerevisiae [5]; with FLC): 0.5
- bisphosphonate MICc (Saccharomyces cerevisiae [5]; with ITR): 0.5
- FICI (Saccharomyces cerevisiae [5]; with ITR, Saccharomyces cerevisiae): 1.00
- bisphosphonate MICc (Saccharomyces cerevisiae [5]; with KET): 0.25
- bisphosphonate MICc (Saccharomyces cerevisiae [5]; with VOR): 0.25
- INH MICc (Candida glabrata [6]; [19]): 0.125
- INH MICc (Candida glabrata [6]; [20]): 0.063
- INH MICc (Candida glabrata [6]; [21]): 0.031
- bisphosphonate MICc (Candida glabrata [6]; with 5FC): 0.125
- bisphosphonate MICc (Candida glabrata [6]; with AMB): 0.25
- bisphosphonate MICc (Candida glabrata [6]; with CAS): 0.25
- bisphosphonate MICc (Candida glabrata [6]; with FLC): 0.125
- bisphosphonate MICc (Candida glabrata [6]; with ITR): 0.063
- bisphosphonate MICc (Candida glabrata [6]; with KET): 0.031
- bisphosphonate MICc (Candida glabrata [6]; with VOR): 0.03125
- INH MICc (Candida albicans [7]; [19]): 0.0625
- INH MICc (Candida albicans [7]; [20]): 0.25
- INH MICc (Candida albicans [7]; [21]): 0.125
- bisphosphonate MICc (Candida albicans [7]; with 5FC): 0.5
- bisphosphonate MICc (Candida albicans [7]; with AMB): 0.25
- bisphosphonate MICc (Candida albicans [7]; with CAS): 1
- bisphosphonate MICc (Candida albicans [7]; with FLC): 0.0625
- bisphosphonate MICc (Candida albicans [7]; with ITR): 0.25
- bisphosphonate MICc (Candida albicans [7]; with KET): 0.125
- bisphosphonate MICc (Candida albicans [7]; with VOR): 0.25
- INH MICc (FLC:INH) (Aspergillus flavus [8]; A. flavus, MIC of the inhibitor in combination with fluconazole): 0.063
- INH MICc (ITR:INH) (Aspergillus flavus [8]; A. flavus, MIC of the inhibitor in combination with itraconazole): 0.125
- INH MICc (KET:INH) (Aspergillus flavus [8]; A. flavus, MIC of the inhibitor in combination with ketoconazole): 0.125
- FICI (Aspergillus flavus [8]; AMB:10-ZOL): 2
- FICI (Aspergillus flavus [8]; FLC:10-ZOL): 0.53
- FICI (Aspergillus flavus [8]; VOR:10-ZOL): 0.37
- bisphosphonate MICc (Aspergillus flavus [8]; with 5FC): 1
- bisphosphonate MICc (Aspergillus flavus [8]; with AMB): 2
- bisphosphonate MICc (Aspergillus flavus [8]; with CAS): 2
- bisphosphonate MICc (Aspergillus flavus [8]; with FLC): 0.063
- FICI (Aspergillus flavus [8]; with FLC, Aspergillus flavus): 0.53
- bisphosphonate MICc (Aspergillus flavus [8]; with ITR): 0.125
- bisphosphonate MICc (Aspergillus flavus [8]; with KET): 0.125
- bisphosphonate MICc (Aspergillus flavus [8]; with VOR): 0.5
- FICI (Aspergillus fumigatus [9]; 5FC:10-ZOL): 3
- FLC MICc (Aspergillus fumigatus [9]; A. fumigatus, FLC:INH combination, MIC of FLC in combination with the inhibitor): 8
- INH MICc (Aspergillus fumigatus [9]; A. fumigatus, FLC:INH combination, MIC of the inhibitor in combination with FLC): 0.5
- ITR MICc (Aspergillus fumigatus [9]; A. fumigatus, ITR:INH combination, MIC of ITR in combination with the inhibitor): 0.063
- INH MICc (Aspergillus fumigatus [9]; A. fumigatus, ITR:INH combination, MIC of the inhibitor in combination with ITR): 0.063
- KET MICc (Aspergillus fumigatus [9]; A. fumigatus, KET:INH combination, MIC of KET in combination with the inhibitor): 0.25
- INH MICc (Aspergillus fumigatus [9]; A. fumigatus, KET:INH combination, MIC of the inhibitor in combination with KET): 0.25
- FICI (Aspergillus fumigatus [9]; CAS:10-ZOL): 1.5
- bisphosphonate MICc (Aspergillus fumigatus [9]; with 5FC): 1
- bisphosphonate MICc (Aspergillus fumigatus [9]; with AMB): 0.25
- bisphosphonate MICc (Aspergillus fumigatus [9]; with CAS): 1
- bisphosphonate MICc (Aspergillus fumigatus [9]; with FLC): 0.5
- bisphosphonate MICc (Aspergillus fumigatus [9]; with ITR): 0.063
- bisphosphonate MICc (Aspergillus fumigatus [9]; with KET): 0.25
- bisphosphonate MICc (Aspergillus fumigatus [9]; with VOR): 0.25
- FICI (Trichophyton rubrum [10]; KET:10-ZOL): 0.5
- INH MICc (FLC:INH) (Trichophyton rubrum [10]; T. rubrum, MIC of the inhibitor in combination with fluconazole): 0.5
- INH MICc (ITR:INH) (Trichophyton rubrum [10]; T. rubrum, MIC of the inhibitor in combination with itraconazole): 0.5
- INH MICc (KET:INH) (Trichophyton rubrum [10]; T. rubrum, MIC of the inhibitor in combination with ketoconazole): 0.5
- FICI (Trichophyton rubrum [10]; VOR:10-ZOL): 0.5
- bisphosphonate MICc (Trichophyton rubrum [10]; with 5FC): 1
- bisphosphonate MICc (Trichophyton rubrum [10]; with AMB): 0.25
- bisphosphonate MICc (Trichophyton rubrum [10]; with CAS): 0.5
- bisphosphonate MICc (Trichophyton rubrum [10]; with FLC): 0.5
- bisphosphonate MICc (Trichophyton rubrum [10]; with ITR): 0.5
- bisphosphonate MICc (Trichophyton rubrum [10]; with KET): 0.5
- bisphosphonate MICc (Trichophyton rubrum [10]; with VOR): 0.5
- FICI (Trichophyton tonsurans; 5FC:10-ZOL): 2
- FICI (Trichophyton tonsurans; AMB:10-ZOL): 2.92
- FICI (Trichophyton tonsurans; CAS:10-ZOL): ≥4
- FICI (Trichophyton tonsurans; FLC:10-ZOL): 0.52
- bisphosphonate MICc (Trichophyton tonsurans; with 5FC): 1
- bisphosphonate MICc (Trichophyton tonsurans; with AMB): 1
- bisphosphonate MICc (Trichophyton tonsurans; with CAS): 1
- bisphosphonate MICc (Trichophyton tonsurans; with FLC): 0.5
- bisphosphonate MICc (Trichophyton tonsurans; with ITR): 1
- bisphosphonate MICc (Trichophyton tonsurans; with KET): 0.25
- bisphosphonate MICc (Trichophyton tonsurans; with VOR): 0.5
- Geometric mean MFC (eight fungal species [11]; across eight species): 4.8 µg/mL
- Geometric mean MIC (eight fungal species [11]; across eight species): 1.2 µg/mL
- MFC (eight fungal species [11]; across eight species, read-out: Geometric mean MFC): 4.8 µg/mL
- range of MICs across the tested fungal species (eight fungal species [11]; eight species): 0.5 to 4 µg/mL
- MIC (eight fungal species [11]; geometric mean across eight species, read-out: GM fungal MIC): 1.2 µg/mL
- MIC (eight fungal species [11]; read-out: Geometric mean MIC): 1.2 µg/mL
- effect on azole MIC in combination (eight fungal species [12]; across all species tested): consistently reduced the MIC of the azole
- antagonism with azole drugs (eight fungal species [12]; any of the azole drugs in any species tested): no antagonism
- GM fungal MICc (eight fungal species [12]; geometric mean MIC in combination with azoles): 0.1
- MFC ([13]; Cryptococcus deuterogattii): 2 µg/mL
- MIC ([13]; Cryptococcus deuterogattii): 1 µg/mL
- MIC / MEC ([13]; Cryptococcus deuterogattii R265): 1 µg/mL
- MFC (Cryptococcus neoformans [14]; Cryptococcus neoformans): 2 µg/mL
- MIC (Cryptococcus neoformans [14]; Cryptococcus neoformans): 1 µg/mL
- MIC / MEC (Cryptococcus neoformans [14]; Cryptococcus neoformans H99): 0.5 µg/mL
- MIC / MEC (Candida glabrata [15]; Candida glabrata CBS138 (ATCC 2001)): 0.5 µg/mL
- MFC (Candida glabrata [15]; Nakaseomyces glabratus, CBS138): 1 µg/mL
- MIC (Candida glabrata [15]; Nakaseomyces glabratus, CBS138): 0.5 µg/mL
- MFC (Aspergillus flavus [16]): 4 µg/mL
- MIC (Aspergillus flavus [16]): 2 µg/mL
- MIC / MEC (Aspergillus flavus [16]): 2 µg/mL
- MFC (Aspergillus fumigatus [17]): 2 µg/mL
- MIC (Aspergillus fumigatus [17]): 1 µg/mL
- MIC / MEC (Aspergillus fumigatus [17]): 1 µg/mL
- MFC (Trichophyton rubrum [18]; Trichophyton rubrum): 64 µg/mL
- MIC (Trichophyton rubrum [18]; Trichophyton rubrum): 1 µg/mL
- MIC / MEC (Trichophyton rubrum [18]; Trichophyton rubrum R-218): 2 µg/mL
